Several values for one entry are separate records, joined by “and”; a condition that tells them apart may be missing. Identical values can stand only once.
How the values were obtained:
[1] = molecular target: T1, recombinant FGFR1 (C584S) kinase domain (Homo sapiens, UniProt P11362, C584S); test: FGFR1 (C584S) covalent binding protein mass spectrometry assay; details: protein:inhibitor 1:10, 37° C.
T1 construct: made in house; host or cells: pETDuet vector, IPTG induction in Terrific Broth (bacterial)
Procedure: The previously cloned C488A/C584S FGFR1 construct was modified by site-directed mutagenesis to provide a gene encoding the C584S FGFR1 kinase domain with the cysteine at amino acid C488 reinstated. Expression and purification of this protein followed the protocol described above but with the addition of 10% glycerol to all buffers and a change of buffer pH to a value of 8.5. Protein for mass spectrometry was concentrated to ˜40 mg/ml and was mixed 1:1 (v/v) with glycerol, and then frozen at −20° C. or flash cooled in liquid nitrogen and stored at −80° C. until needed.
Protein samples were buffer exchanged to remove glycerol (the final buffer comprised 20 mM Tris-HCl pH 8.5, 10% (v/v) glycerol, 20 mM NaCl, 5 mM EDTA, 2 mM TCEP) and were mixed with each inhibitor at 1:10 molar ratio (protein:inhibitor). Final protein concentration was 20 μM. […] Samples were mixed with 90 μL of 0.1% formic acid to quench the reaction followed by flash cooling in liquid nitrogen. Samples were stored at −80° C. until needed. All experiments were carried out in triplicate.
Samples were subjected to liquid chromatography mass spectrometry (LC-MS) to show mass changes attributable to irreversible inhibition. Mass spectrometry experiments were performed at the University of Auckland Mass Spectrometry Center using an electropspray QSTAR® XL ESI quadrupole Time-of-Flight (QToF) MS system (Applied Biosystems) operated in positive ionization mode. The instrument was calibrated using Renin Substrate Standard (SCIEX), over the m/z range 100-2000. Protein/inhibitor samples were thawed and 2 μL volumes injected into a liquid chromatography (LC) BIOshell™ A400 Protein C4 HPLC column (10 cm×2.1 mm, 3.4 μm) attached to the mass spectrometer. […] Following elution, samples were directly injected into the mass spectrometer for separation and mass analysis. Mass spectrometry data were processed and analysed using the PeakView™ 2.1 software and the Bio Tool Kit plug-in (SCIEX) and covered an m/z range of 330-1600. Deconvolution calculations allowed visualisation of intact mass protein peaks and allowed peak area measurement to assess the percentage of protein covalently modified by each inhibitor at each time point. Data was plotted using GraphPad Prism 7 (GraphPad).

FGFR1 = molecular target: T2, FGFR1 (Homo sapiens, UniProt P11362); test: Isolated enzyme FRET-based Z-Lyte kinase inhibition assay; type: biochemical; details: means from 3 independent experiments; read-out: Isolate Enzyme Inhibition IC50, FGFR1
T2 construct: purchased Invitrogen
Procedure: (§1) FGFR1-4 and the Z-Lyte Kinase Assay Kit were purchased from Invitrogen. The concentration gradients from 5.1×10^−11 to 1.0×10^−6 mol/L were used for all the test compounds. The experiments were performed according to the instructions of the manufacturer.
(§2) FGFR1-4 isolated enzyme activity was determined using the FRET-based Z-Lyte kinase inhibition assay. The data are the means from 3 independent experiments.

FGFR2 = molecular target: T3, FGFR2 (Homo sapiens, UniProt P21802); test: as above; type: biochemical; details: means from 3 independent experiments; read-out: Isolate Enzyme Inhibition IC50, FGFR2
T3 construct: purchased Invitrogen
Procedure: as §1, §2

FGFR3 = molecular target: T4, FGFR3 (Homo sapiens, UniProt P22607); test: as above; type: biochemical; details: means from 3 independent experiments; read-out: Isolate Enzyme Inhibition IC50, FGFR3
T4 construct: purchased Invitrogen
Procedure: as §1, §2

FGFR4 = molecular target: T5, FGFR4 (Homo sapiens, UniProt P22455); test: as above; type: biochemical; details: means from 3 independent experiments; read-out: Isolate Enzyme Inhibition IC50, FGFR4
T5 construct: purchased Invitrogen
Procedure: as §1, §2

[2] = tested on: FGFR1-amplified H520 non-small cell lung cancer cells; test: Cell proliferation assay (SRB); type: cell-based; details: Homo sapiens, NCI-H520, 168 h, read-out: Cellular Anti-proliferative IC50, H520
[3] = tested on: FGFR2-amplified SUM52 breast cancer cells; test: Cell proliferation assay (SRB); type: cell-based; details: SUM52, 120 h, read-out: Cellular Anti-proliferative IC50, SUM52, 5 days drug exposure
[4] = tested on: FGFR4-amplified Hep3B hepatocellular carcinoma cells; test: Cell proliferation assay (SRB); type: cell-based; details: Homo sapiens, Hep3B; read-out: Cellular Anti-proliferative IC50, Hep3B
[5] = tested on: FGFR1 in H520 cells (phospho-ERK1/2); test: Drug washout Western blot assay, H520 cells; type: cell-based; details: for exposure concentration for irreversible inhibition (fully covalently bind the target) in cells: H520 (FGFR1), 30 minute exposure; for inhibition of phosphorylation of ERK1/2, no washout / phospho-ERK1/2 after extensive drug washout: 30 min; for inhibition of phosphorylation of ERK1/2, no washout: then FGF-stimulation; for phospho-ERK1/2 after extensive drug washout: washout prior to FGF-stimulation; for reversible or irreversible inhibition of FGFR1 in cells: with and without washout
[6] = tested on: FGFR2 in SUM52 cells (phospho-ERK1/2); test: Drug washout Western blot assay, SUM52 cells; type: cell-based; details: for exposure concentration for irreversible inhibition (fully covalently bind the target) in cells: SUM52 (FGFR2), 30 minute exposure; for inhibition of phosphorylation of ERK1/2, no washout / phospho-ERK1/2 after extensive drug washout: 30 min; for inhibition of phosphorylation of ERK1/2, no washout: then FGF-stimulation; for phospho-ERK1/2 after extensive drug washout: washout prior to FGF-stimulation
Procedure: Cells were seeded on the day prior to drug treatment (1 million cells/well; 6-well plate).
Drug stocks were prepared in media using 1 mM or 10 mM DMSO stock solutions. Media was aspirated from each well and replaced with 2 ml of drug-free media for control wells or 2 ml of diluted drug for treated wells. Cells were exposed to drug for 30 min. Recombinant FGF (50 ng/well) was added to each well 15 minutes prior to the end of the drug exposure and protein was extracted as below.
Cells were exposed to drug for 30 min as above. Media was aspirated and each well was washed with 5 ml drug-free media. The wash media was aspirated and replaced with 2 ml drug-free media and cells incubated for a further 30 minutes, after which the wash protocol was repeated. Cells were incubated for a further 90 minutes in drug-free media. Recombinant FGF (50 ng/well) was added to each well 15 minutes prior to the end of the drug-free incubation and protein was extracted as below.
Cell lysates were prepared in 250 μL of RIPA lysis buffer containing protease inhibitor (1:100). After incubation on ice (30 min) and centrifugation (13,000 rpm, 5 min, 4° C.) the supernatants containing the proteins were stored (−20° C.) until required. Bicinchoninic acid (BCA) assay was used to determine the protein concentration of individual cell lysate samples.

[7] = tested on: FGFR3 in SW780 cells (phospho-ERK1/2); test: Drug washout Western blot assay, SW780 cells; type: cell-based; details: for exposure concentration for irreversible inhibition (fully covalently bind the target) in cells: SW780 (FGFR3), 30 minute exposure; for inhibition of phosphorylation of ERK1/2, no washout / phospho-ERK1/2 after extensive drug washout / reversible or irreversible inhibition of FGFR3 in cells: SW780; for inhibition of phosphorylation of ERK1/2, no washout / phospho-ERK1/2 after extensive drug washout: 30 min; for inhibition of phosphorylation of ERK1/2, no washout: then FGF-stimulation; for phospho-ERK1/2 after extensive drug washout: washout prior to FGF-stimulation; for reversible or irreversible inhibition of FGFR3 in cells: with and without washout
[8] = tested on: FGFR3-amplified SW780 bladder cancer cells; test: Cell proliferation assay (SRB); details: Homo sapiens, SW780, 120 h, read-out: Cellular Anti-proliferative IC50, SW780

T5 sequence (P22455 22-802): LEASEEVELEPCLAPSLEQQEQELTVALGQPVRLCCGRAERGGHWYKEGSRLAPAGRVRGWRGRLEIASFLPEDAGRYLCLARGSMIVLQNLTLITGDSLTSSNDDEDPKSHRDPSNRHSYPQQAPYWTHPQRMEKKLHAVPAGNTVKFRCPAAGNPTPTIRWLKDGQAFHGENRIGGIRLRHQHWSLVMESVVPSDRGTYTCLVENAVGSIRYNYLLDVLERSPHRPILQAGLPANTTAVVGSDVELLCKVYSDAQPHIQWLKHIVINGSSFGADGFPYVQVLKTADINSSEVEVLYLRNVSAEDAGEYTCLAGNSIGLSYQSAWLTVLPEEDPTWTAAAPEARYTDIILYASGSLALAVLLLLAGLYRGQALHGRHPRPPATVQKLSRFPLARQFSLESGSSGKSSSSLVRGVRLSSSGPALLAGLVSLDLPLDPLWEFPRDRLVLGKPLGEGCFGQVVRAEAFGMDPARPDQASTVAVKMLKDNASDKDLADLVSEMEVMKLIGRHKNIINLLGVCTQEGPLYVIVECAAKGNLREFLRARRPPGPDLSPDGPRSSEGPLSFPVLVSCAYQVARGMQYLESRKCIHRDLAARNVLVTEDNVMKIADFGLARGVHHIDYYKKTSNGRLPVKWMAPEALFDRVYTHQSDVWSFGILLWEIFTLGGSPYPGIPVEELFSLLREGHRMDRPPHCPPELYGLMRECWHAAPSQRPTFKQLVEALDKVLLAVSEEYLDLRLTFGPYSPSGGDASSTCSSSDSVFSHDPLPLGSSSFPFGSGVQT
T1 sequence (P11362 with tags, fused parts or gaps C584S): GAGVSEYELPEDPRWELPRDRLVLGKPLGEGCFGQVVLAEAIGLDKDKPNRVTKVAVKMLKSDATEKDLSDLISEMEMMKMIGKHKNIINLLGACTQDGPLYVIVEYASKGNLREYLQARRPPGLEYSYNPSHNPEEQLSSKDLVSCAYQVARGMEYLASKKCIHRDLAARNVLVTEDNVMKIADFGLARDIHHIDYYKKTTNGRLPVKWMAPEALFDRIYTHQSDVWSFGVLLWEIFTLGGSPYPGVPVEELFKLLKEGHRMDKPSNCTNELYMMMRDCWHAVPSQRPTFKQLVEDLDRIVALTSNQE
T3 sequence (P21802 22-821): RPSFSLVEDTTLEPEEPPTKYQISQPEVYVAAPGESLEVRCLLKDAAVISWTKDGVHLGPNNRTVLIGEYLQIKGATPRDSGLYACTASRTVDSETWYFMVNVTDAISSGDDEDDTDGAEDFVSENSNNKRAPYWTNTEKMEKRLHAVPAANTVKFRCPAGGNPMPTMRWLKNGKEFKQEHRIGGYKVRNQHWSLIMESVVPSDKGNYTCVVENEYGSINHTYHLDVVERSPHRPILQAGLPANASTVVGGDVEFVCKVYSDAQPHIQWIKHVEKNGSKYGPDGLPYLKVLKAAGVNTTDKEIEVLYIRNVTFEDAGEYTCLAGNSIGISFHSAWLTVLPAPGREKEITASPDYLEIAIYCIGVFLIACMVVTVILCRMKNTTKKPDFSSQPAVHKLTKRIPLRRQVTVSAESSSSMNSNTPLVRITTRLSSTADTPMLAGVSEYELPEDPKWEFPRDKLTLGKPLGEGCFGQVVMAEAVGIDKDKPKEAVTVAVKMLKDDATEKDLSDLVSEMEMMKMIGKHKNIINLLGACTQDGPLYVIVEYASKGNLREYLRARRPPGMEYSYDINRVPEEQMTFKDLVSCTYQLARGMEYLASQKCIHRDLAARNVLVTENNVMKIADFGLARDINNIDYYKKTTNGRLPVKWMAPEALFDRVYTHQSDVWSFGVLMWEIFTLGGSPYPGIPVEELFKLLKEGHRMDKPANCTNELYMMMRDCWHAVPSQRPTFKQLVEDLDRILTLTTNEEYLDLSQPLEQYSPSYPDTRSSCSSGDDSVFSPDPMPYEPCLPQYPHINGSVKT
T2 sequence (P11362 22-822): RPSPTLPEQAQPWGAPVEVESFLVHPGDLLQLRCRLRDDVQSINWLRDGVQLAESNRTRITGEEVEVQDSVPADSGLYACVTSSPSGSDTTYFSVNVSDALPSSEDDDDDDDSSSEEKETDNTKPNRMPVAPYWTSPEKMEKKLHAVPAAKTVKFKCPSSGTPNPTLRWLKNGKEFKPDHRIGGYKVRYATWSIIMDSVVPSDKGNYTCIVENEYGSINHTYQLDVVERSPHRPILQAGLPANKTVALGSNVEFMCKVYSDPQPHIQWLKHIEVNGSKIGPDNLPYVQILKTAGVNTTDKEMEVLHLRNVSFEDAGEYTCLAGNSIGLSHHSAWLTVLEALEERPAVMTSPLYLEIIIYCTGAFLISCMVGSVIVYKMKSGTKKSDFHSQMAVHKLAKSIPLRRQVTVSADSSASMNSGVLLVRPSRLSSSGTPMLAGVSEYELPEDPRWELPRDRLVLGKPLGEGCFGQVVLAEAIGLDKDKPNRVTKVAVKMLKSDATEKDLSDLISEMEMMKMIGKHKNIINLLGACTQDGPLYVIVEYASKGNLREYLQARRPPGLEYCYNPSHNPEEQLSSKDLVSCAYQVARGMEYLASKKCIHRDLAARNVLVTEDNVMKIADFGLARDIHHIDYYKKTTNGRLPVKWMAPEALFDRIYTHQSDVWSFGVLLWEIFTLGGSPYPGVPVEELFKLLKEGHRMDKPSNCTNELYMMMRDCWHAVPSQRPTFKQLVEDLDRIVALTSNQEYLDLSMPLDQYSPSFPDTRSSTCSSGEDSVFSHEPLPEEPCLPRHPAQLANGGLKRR
T4 sequence (P22607 23-806): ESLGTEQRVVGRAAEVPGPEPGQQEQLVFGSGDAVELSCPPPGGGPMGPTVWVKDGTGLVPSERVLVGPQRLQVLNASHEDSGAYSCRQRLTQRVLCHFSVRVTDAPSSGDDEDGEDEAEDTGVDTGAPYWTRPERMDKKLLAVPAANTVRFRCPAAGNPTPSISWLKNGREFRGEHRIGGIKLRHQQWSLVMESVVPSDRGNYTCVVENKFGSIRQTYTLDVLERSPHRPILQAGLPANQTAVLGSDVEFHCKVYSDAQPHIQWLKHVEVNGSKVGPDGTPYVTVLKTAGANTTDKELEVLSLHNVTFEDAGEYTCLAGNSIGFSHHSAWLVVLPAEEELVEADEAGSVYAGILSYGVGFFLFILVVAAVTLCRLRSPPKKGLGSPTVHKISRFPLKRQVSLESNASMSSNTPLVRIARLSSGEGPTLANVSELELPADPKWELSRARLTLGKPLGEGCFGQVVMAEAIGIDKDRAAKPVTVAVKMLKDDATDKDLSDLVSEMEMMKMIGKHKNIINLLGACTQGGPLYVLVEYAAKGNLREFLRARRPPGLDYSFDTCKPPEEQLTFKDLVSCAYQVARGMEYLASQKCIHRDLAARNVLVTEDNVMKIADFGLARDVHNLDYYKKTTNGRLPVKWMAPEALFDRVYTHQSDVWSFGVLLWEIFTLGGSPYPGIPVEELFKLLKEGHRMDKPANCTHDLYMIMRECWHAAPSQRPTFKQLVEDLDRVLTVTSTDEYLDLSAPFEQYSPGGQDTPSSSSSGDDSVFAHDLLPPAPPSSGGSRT

Structure (SMILES) | % Conversion to FGFR1 (C584S) covalent adduct after 120 minutes incubation [1] [%] | IC50 (FGFR1) [nM] | IC50 (FGFR2) [nM] | IC50 (FGFR3) [nM] | IC50 (FGFR4) | IC50 [2] [nM] | IC50 [3] [nM] | IC50 [4] [nM] | exposure concentration for irreversible inhibition (fully covalently bind the target) in cells [5] [nM] | inhibition of phosphorylation of ERK1/2, no washout ([5]; H520, 100 nM) | phospho-ERK1/2 after extensive drug washout ([5]; H520, 100 nM) | phospho-ERK1/2 after extensive drug washout ([5]; H520, 1000 nM) | exposure concentration for irreversible inhibition (fully covalently bind the target) in cells [6] [nM] | inhibition of phosphorylation of ERK1/2, no washout ([6]; SUM52, 100 nM) | phospho-ERK1/2 after extensive drug washout ([6]; SUM52, 100 nM) | phospho-ERK1/2 after extensive drug washout ([6]; SUM52, 1000 nM) | exposure concentration for irreversible inhibition (fully covalently bind the target) in cells [7] [nM] | inhibition of phosphorylation of ERK1/2, no washout ([7]; 100 nM) | phospho-ERK1/2 after extensive drug washout ([7]; 100 nM) | phospho-ERK1/2 after extensive drug washout ([7]; 1000 nM) | other results
COc1cc(OC)c(Cl)c(N2Cc3cnc(Nc4ccc(N5CCOCC5)cc4)nc3N(C3CCN(C(=O)/C=C/CN(C)C)CC3)C2=O)c1Cl [Compound 129, (E)-3-(2,6-dichloro-3,5-dimethoxyphenyl)-1-(1-(4-(dimethylamino)but-2-enoyl)piperidin-4-yl)-7-((4-morpholinophenyl)amino)-3,4-dihydropyrimido[4,5-d]pyrimidin-2(1H)-one] | 46 | – | – | – | – | – | – | – | – | – | – | – | – | – | – | – | – | – | – | – | –
COc1cc(OC)c(Cl)c(N2Cc3cnc(Nc4ccccc4)nc3N(C3CCN(C(=O)/C=C/CN(C)C)CC3)C2=O)c1 [Compound 128, (E)-3-(2-chloro-3,5-dimethoxyphenyl)-1-(1-(4-(dimethylamino)but-2-enoyl)piperidin-4-yl)-7-(phenylamino)-3,4-dihydropyrimido[4,5-d]pyrimidin-2(1H)-one] | 48 | – | – | – | – | – | – | – | – | – | – | – | – | – | – | – | – | – | – | – | –
COc1cc(OC)c(Cl)c(N2Cc3cnc(Nc4ccccc4)nc3N([C@H]3CCN(C(=O)/C=C/CN(C)C)C3)C2=O)c1Cl [Compound 106, (S,E)-3-(2,6-dichloro-3,5-dimethoxyphenyl)-1-(1-(4-(dimethylamino)but-2-enoyl)pyrrolidin-3-yl)-7-(phenylamino)-3,4-dihydropyrimido[4,5-d]pyrimidin-2(1H)-one] | 11 | 1.1 | 26 | 17 | < 100 nM and 94 nM | 11 | 0.5 | 5.5 | 100 | complete inhibition | fully inhibited | essential full inhibition | 100 | complete inhibition | fully inhibited | essential full inhibition | 100 | complete inhibition | fully inhibited | essential full inhibition | reversible or irreversible inhibition of FGFR1 in cells ([5]; H520, 30 min exposure, 100 nM): potent irreversible inhibitor; reversible or irreversible inhibition of FGFR2 in cells ([6]; SUM52, 30 min exposure, 100 nM, with and without washout): potent irreversible inhibitor; reversible or irreversible inhibition of FGFR3 in cells ([7]; 30 min exposure, 100 nM): potent irreversible inhibitor; reversible or irreversible inhibition of FGFR3 in cells ([7]; 120 minutes exposure, 100 nM): irreversible; IC50 [8]: 5 nM
COc1cc(OC)c(Cl)c(N2Cc3cnc(NC(C)C)nc3N([C@H]3CCN(C(=O)/C=C/CN(C)C)C3)C2=O)c1Cl [Compound 104, (S,E)-3-(2,6-dichloro-3,5-dimethoxyphenyl)-1-(1-(4-(dimethylamino)but-2-enoyl)pyrrolidin-3-yl)-7-(isopropylamino)-3,4-dihydropyrimido[4,5-d]pyrimidin-2(1H)-one] | 8 | 1.1 | 23 | 35 | 906 nM | 17 | 1.4 | 12 | 1000 | complete inhibition | restoration | essential full inhibition | 1000 | complete inhibition | restoration | essential full inhibition | 1000 | complete inhibition | restoration | essential full inhibition | reversible or irreversible inhibition of FGFR1 in cells ([5]; H520, 2 hours exposure, 100, 300 and 600 nM): potent, irreversible inhibition; concentration required to suppress FGFR1 signalling through phospho-ERK1/2 ([5]; H520, 2 hours exposure, tested at 100, 300 and 600 nM): 300 nM; reversible or irreversible inhibition of FGFR3 in cells ([7]; 120 minutes exposure, 100 nM): reversible; IC50 [8]: 11 nM

Further lines, with some results ahead:

% Conversion to FGFR1 (C584S) covalent adduct after 120 minutes incubation [1] [%] | Structure (SMILES) | IC50 (FGFR1) [nM] | IC50 (FGFR2) [nM] | IC50 (FGFR3) [nM] | IC50 (FGFR4) | IC50 [2] [nM] | IC50 [3] [nM] | IC50 [4] [nM] | exposure concentration for irreversible inhibition (fully covalently bind the target) in cells [5] [nM] | inhibition of phosphorylation of ERK1/2, no washout ([5]; H520, 100 nM) | phospho-ERK1/2 after extensive drug washout ([5]; H520, 100 nM) | phospho-ERK1/2 after extensive drug washout ([5]; H520, 1000 nM) | exposure concentration for irreversible inhibition (fully covalently bind the target) in cells [6] [nM] | inhibition of phosphorylation of ERK1/2, no washout ([6]; SUM52, 100 nM) | phospho-ERK1/2 after extensive drug washout ([6]; SUM52, 100 nM) | phospho-ERK1/2 after extensive drug washout ([6]; SUM52, 1000 nM) | exposure concentration for irreversible inhibition (fully covalently bind the target) in cells [7] [nM] | inhibition of phosphorylation of ERK1/2, no washout ([7]; 100 nM) | phospho-ERK1/2 after extensive drug washout ([7]; 100 nM) | phospho-ERK1/2 after extensive drug washout ([7]; 1000 nM) | other results
39 | COc1cc(OC)cc(N2Cc3cnc(Nc4ccc(N5CCOCC5)cc4)nc3N(C3CCN(C(=O)/C=C/CN(C)C)CC3)C2=O)c1 [Compound 131, (E)-3-(3,5-dimethoxyphenyl)-1-(1-(4-(dimethylamino)but-2-enoyl)piperidin-4-yl)-7-((4-morpholinophenyl)amino)-3,4-dihydropyrimido[4,5-d]pyrimidin-2(1H)-one] | – | – | – | – | – | – | – | – | – | – | – | – | – | – | – | – | – | – | – | –
46 | COc1cc(OC)c(Cl)c(N2Cc3cnc(Nc4ccc(N5CCOCC5)cc4)nc3N(C3CCN(C(=O)/C=C/CN(C)C)CC3)C2=O)c1 [Compound 130, (E)-3-(2-chloro-3,5-dimethoxyphenyl)-1-(1-(4-(dimethylamino)but-2-enoyl)piperidin-4-yl)-7-((4-morpholinophenyl)amino)-3,4-dihydropyrimido[4,5-d]pyrimidin-2(1H)-one] | – | – | – | – | – | – | – | – | – | – | – | – | – | – | – | – | – | – | – | –

— patent publication US11192890B2, “FGFR kinase inhibitors and pharmaceutical uses” (AUCKLAND UNISERVICES LIMITED, priority 2017, dated 2021)
